Experimental data taken from PubChem BioAssay (NCI).
Several values for one entry are separate records, joined by “and”; a condition that tells them apart may be missing. Equal values may be shown once.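 48-hour exposure; five concentrations; linearly interpolated endpoints. Abbreviation: GI50, concentration required for 50% inhibition of growth. TGI: concentration producing complete growth inhibition.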

Tests used:
Experiment in all cases: NCI anticancer screen, dose series, 48 h
[1] = system: SK-MEL-2 melanoma
[2] = system: BT-549 breast
[3] = system: SK-MEL-28 melanoma
[4] = system: HS 578T breast
[5] = system: SNB-19 CNS
[6] = system: SK-MEL-5 melanoma
[7] = system: HOP-62 NSCLC
[8] = system: MCF7 breast
[9] = system: DU-145 prostate
[10] = system: HCC-2998 colon

Row | Compound | GI50 [1] | TGI [1] | GI50 [2] | TGI [2] | GI50 [3] | TGI [3] | GI50 [4] | TGI [4] | GI50 [5] | TGI [5] | GI50 [6] | TGI [6] | GI50 [7] | TGI [7] | GI50 [8] | TGI [8] | GI50 [9] | TGI [9] | GI50 [10] | TGI [10]
1 | C=C(C)[C@@H]1CC[C@]2(CN)CC[C@]3(C)[C@H](CC[C@@H]4[C@@]5(C)CCC(N)[C@@](C)(CO)[C@@H]5CC[C@]43C)[C@@H]12 (stereo partly drawn) | 1.89 µM | 3.44 µM | 1.66 µM | 3.2 µM | 1.9 µM | 3.37 µM | 1.65 µM | 3.65 µM | 1.87 µM | 3.34 µM | 1.72 µM | 3.16 µM | 1.78 µM | 3.24 µM | 1.53 µM | 3.2 µM | 1.66 µM | 3.17 µM | 1.77 µM | 3.24 µM
2 | COCC(=O)NC/C=C/c1ccc2ncnc(Nc3ccc(Oc4ccc(C)nc4)c(C)c3)c2c1 | 18.5 µM | 41.7 µM | 6.81 µM | 24.9 µM | 12.9 µM | 30.6 µM | 17.2 µM | 56.1 µM | 18.4 µM | > 100 µM | 3.26 µM | 13 µM | 22.4 µM | 71 µM | 4.11 µM | 32.5 µM | 9.54 µM | > 100 µM | 20.1 µM | 39.7 µM
3 | CC(=Nc1ccccc1)C1=C(O)C(Cc2ccc(F)cc2)NC1=O (stereo not drawn) | 0.423 µM | > 100 µM | 0.879 µM | > 100 µM | 2.63 µM | > 100 µM | 2.44 µM | > 100 µM | 4.75 µM | > 100 µM | 0.472 µM | > 100 µM | 0.959 µM | > 100 µM | 0.412 µM | > 100 µM | 2.12 µM | > 100 µM | 1.73 µM | 40.1 µM
4 | C[C@H](C(O)CC(=O)C(C)(C)O)[C@H]1CC[C@@]2(C)[C@@H]3CC[C@H]4C(C)(C)[C@@H](OC5OC(COC6OC(CO)C(O)C(O)C6O)C(O)C(O)C5O)CC[C@]4(C)C3=CC[C@]12C (stereo partly drawn) |  | > 100 µM |  | > 100 µM |  | > 100 µM |  | > 100 µM |  | > 100 µM |  | > 100 µM |  | > 100 µM |  | > 100 µM |  | > 100 µM |  | > 100 µM
5 | CCC1(N)C(=O)OCc2c1cc1n(c2=O)Cc2cc3ccccc3nc2-1 (stereo not drawn) | 48.8 µM | > 100 µM |  | > 100 µM | 41.7 µM | > 100 µM | > 69.6 µM | > 100 µM |  | > 100 µM | 7.17 µM | 20.4 µM and > 47.8 µM | 4.77 µM | > 100 µM | 2.82 µM | > 100 µM | 5.79 µM | > 68.7 µM and 21.2 µM | 14.1 µM | 41.1 µM and > 100 µM
6 | CN1CCN(c2ccc(-c3cccc(CN4CCOCC4)c3)cc2NC(=O)c2c[nH]c(=O)cc2C(F)(F)F)CC1 | 27.3 µM | 72 µM | 23.7 µM | > 100 µM | 37.1 µM | > 100 µM | 44.8 µM | > 100 µM | 94.7 µM | > 100 µM | 14.2 µM | 28.3 µM | > 100 µM | > 100 µM | 33.1 µM | > 100 µM | 62.5 µM | > 100 µM | > 100 µM | > 100 µM
7 | Cc1ccc(-n2c3c(c4c(CN)c(O)ccc42)CCc2ccccc2C3=O)cc1 | 12 µM | 26.9 µM | 10.7 µM | 31.8 µM | 23.4 µM | 69.4 µM | 0.456 µM | 5.03 µM | 19.9 µM | 38.4 µM | 1.61 µM | 3.01 µM | 17.2 µM | 31.7 µM | 17.3 µM | > 100 µM | 17.7 µM | 41.7 µM | 4.05 µM | 15.6 µM
8 | Cc1ccccc1C[P+](c1ccccc1)(c1ccccc1)c1ccccc1 | 1.29 µM | 68.4 µM | 2.7 µM | 71.7 µM | 2.1 µM | 44 µM | 2.13 µM | 33.7 µM | 2.07 µM | > 100 µM | 0.375 µM | 1.58 µM | 1.79 µM | 58.9 µM | 0.649 µM | 39.6 µM | 2.18 µM | > 100 µM | 0.888 µM | 24.2 µM
9 | O=S(=O)(NCCNc1cc(-c2cn(-c3ccccc3)nc2-c2cccc(O)c2)ccn1)c1ccc(Br)cc1 | 2.3 µM | 4.79 µM | 2.52 µM | 6.87 µM | 2.09 µM | 4.78 µM | 2.35 µM | 7.71 µM | 2.89 µM | 11.1 µM | 1.64 µM | 3.03 µM | 2.35 µM | 5.99 µM | 2.33 µM | 6.91 µM | 3.02 µM | 11.6 µM | 2.14 µM | 4.1 µM
10 | Cc1ccc2c(c1)-c1oc(=O)c(-c3cc4ccccc4oc3=O)cc1C(O)O2 (stereo not drawn) | 16.9 µM | 42.1 µM | 12.7 µM | 25.5 µM | 30.2 µM | 75.2 µM | 24 µM | 47.7 µM | 22.6 µM | 71 µM | 19.1 µM | 33.2 µM | 22.9 µM | 41.4 µM | 31.7 µM | > 100 µM | 11.6 µM | 23.8 µM | 18.5 µM | 36.2 µM
